From PMC9455918, “Quinolizidines as Novel SARS-CoV-2 Entry Inhibitors” (International Journal of Molecular Sciences, 2022)
Values joined by “and” are separate entries in the source; they are usually repeats but may differ in a detail not shown here. Identical values can stand only once. Like-named read-outs stand apart in the source and are kept apart here.

Assays:
[1] = system: D614G spike-pseudotyped virus; assay type: cell-based, SARS-CoV-2
[2] = system: Omicron BA.1 spike-pseudotyped virus; assay: microbe, parasite or virus in culture; assay type: cell-based, SARS-CoV-2
[3] = 293T-ACE2 cells, 3 days, luciferase reporter, mean ± SD of three tests, Inactive = CC50/IC50 ratio < 5

SMILES: Fc1ccc(CNCCCCN2CCCC3=CC4CC(CN5CCCCC45)C32)cc1 (centres unmarked) [Compound 9]
- IC50 [1]: 610 ± 180 nM

SMILES: CCOC(=O)[C@H]1O[C@@H]1C(=O)N[C@@H](CC(C)C)C(=O)NCCC(C)C [Compound E64D, E64D, reference compound]
- IC50 ([2]; read-out: IC50, Omicron BA.1 spike-pseudotyped virus): 360 ± 76 nM
- IC50 [1, 3]: 480 ± 110 nM

SMILES: O=C(NCCN1CCCC2=CC3CC(CN4CCCCC34)C21)c1ccccc1F (centres unmarked) [Compound 2]
- IC50, D614G spike-pseudotyped virus [1]: Inactive ^8

SMILES: CCN(CC)CCCC(C)Nc1ccnc2cc(Cl)ccc12 (centres unmarked) [Chloroquine diphosphate, reference compound]
- IC50 [1]: 2300 ± 3600 nM

SMILES: C1=C2CCCN(CCCCCNCc3ccccc3)C2C2CC1C1CCCCN1C2 (centres unmarked) [Compound 4]
- IC50 [1]: 860 ± 1500 nM
- IC50, D614G spike-pseudotyped virus [1, 3]: sub-µM potency

SMILES: C1=C2CCCN[C@H]2[C@@H]2C[C@H]1[C@H]1CCCCN1C2 [Aloperine, aloperine, reference compound]
- IC50 [1]: 11500 ± 2300 nM

SMILES: O=C(Cc1ccc(S(=O)(=O)C(F)(F)F)cc1)NCCCCN1CCCC2=CC3CC(CN4CCCCC34)C21 (centres unmarked) [Compound 3]
- IC50 [1]: 3800 ± 680 nM

SMILES: O=C(NCCCCCCN1CCCC2CC3CC(CN4CCCCC34)C21)c1c(F)cc(Br)cc1F (centres unmarked) [Compound 1]
- IC50 [1]: 4700 ± 760 nM

SMILES: O=C(NCCCCCCCC(=O)N1CCCC2=CC3CC(CN4CCCCC34)C21)c1ccc(OC(F)(F)F)cc1 (centres unmarked) [Compound 8]
- IC50 [1]: 17500 ± 2300 nM
- IC50, D614G spike-pseudotyped virus [1, 3]: weak inhibitor

SMILES: CC(C)(C)c1ccc(C(=O)NCCCCCCN2CCCC3=CC4CC(CN5CCCCC45)C32)cc1 (centres unmarked) [Compound 7]
- IC50 [1]: 3700 ± 870 nM

SMILES: C1=C2CCCN(CCCCNCc3ccccc3)C2C2CC1C1CCCCN1C2 (centres unmarked) [Compound 5]
- Fold less sensitive, Omicron variants [2]: approximately 1.5 fold
- IC50 ([2]; Severe acute respiratory syndrome coronavirus 2, 293T/ACE2, read-out: IC50, Omicron BA.1 spike-pseudotyped virus): 760 ± 220 nM
- Fold more potent than aloperine against D614G spike-pseudotyped virus [1]: approximately 22 fold
- Fold more potent than chloroquine against D614G spike-pseudotyped virus [1]: ~5 fold
- IC50 [1]: 500 nM and 530 nM
- IC50, D614G spike-pseudotyped virus [1, 3]: sub-µM potency

SMILES: COc1ccc(C(=O)NCCCCN2CCCC3=CC4CC(CN5CCCCC45)C32)cc1 (centres unmarked) [Compound 6]
- IC50 [1]: 11900 ± 2100 nM
